“Also recorded” adds a separate entry of the source.
Legend:
[1] = system: zebrafish; format: in vivo; conditions: for rescue of behavioral phenotypes by pretreatment with the GABAAR antagonist PTX: violet light and eASR phenotypes, in words
[2] = system: human GABAARs (α1β2 and α1β2γ2); format: cell-based; conditions: for FLIPR Results / Ave Norm FLIPR Score: compound at 20 uM then 5 uM GABA; for FLIPR Results: Positive/Negative; for GABAAR PAM activity in FLIPR, in words: in the presence of GABA; for Ave Norm FLIPR Score: DMSO = 1
Text: To determine if these compounds targeted human GABAARs, we tested them in a fluorescent imaging plate reader (FLIPR) assay on HEK293 cells transfected with α1β2 and α1β2γ2 human GABAAR subtypes. […]. […] While some of the compounds appeared to function in this assay as negative allosteric modulators (NAMs), reductions in fluorescence were likely due to toxicity-induced cell loss (Fig. 2f, Supplementary Table 5).
We used the FLIPR system (Molecular Devices) to quantify GABA-evoked activity of human GABAARs. We chose a membrane potential dye (Molecular Devices) to measure changes in membrane potentials and stably transfected HEK293 cells that expressed α1, β2 and γ2. Since we observed an increase in GABA-evoked responses when transfected with γ2 transiently, we describe the cells as having a low level of γ-subunit expression, indicating heterogeneity of GABAAR compositions in the cell (α1β2 or α1β2γ2). To assay for direct agonists, fluorescence was subtracted pre- and post compound addition. To assay for PAMs, cells were treated with compound at 20 uM and then with 5 uM GABA.

[3] = system: adult zebrafish; assay: Behavioral responses of adult zebrafish; conditions: in words
[4] = system: zebrafish; assay: Optovin-response suppression assay (pain-related); conditions: in words; relative to concentrations that caused eASRs
Text: To determine if any of the hit compounds may be analgesic, we used optovin-induced motor activity as a potential analgesia-related assay.

[5] = biological target: TSPO (Rattus norvegicus, UniProt P16257); assay: In vitro receptor binding (NIMH PDSP)
Sequence of TSPO (P16257 whole entry): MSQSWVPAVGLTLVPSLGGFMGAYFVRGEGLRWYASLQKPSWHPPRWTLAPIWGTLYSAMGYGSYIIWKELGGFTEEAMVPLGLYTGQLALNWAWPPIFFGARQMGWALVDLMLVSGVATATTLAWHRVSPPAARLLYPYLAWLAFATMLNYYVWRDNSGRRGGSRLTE
Text: (§1) A second approach to target identification was to test the binding affinity of hit compounds against a panel of 43 human and rodent neurotransmitter-related targets. […]. Several hit compounds bound to multiple targets, including compound 7145248, which bound to TSPO, the benzodiazepine receptor (BZP), dopamine transporter, and the alpha 2b receptor (Fig. 3d). The most common targets (binding > 5 compounds) included BZP, sigma 2, HTR2A/B/C, HTR6, and TSPO (Fig. 3c, d). TSPO, previously known as the peripheral benzodiazepine receptor (PBR) (because it was originally identified as a binding site for benzodiazepine anxiolytic drugs), is a mitochondrial protein that supplies cholesterol to steroid-producing enzymes in the brain[36]. TSPO ligands are thought to enhance GABAergic signaling by increasing neurosteroid production. However, some TSPO ligands, including benzodiazepines and zolpidem, also bind to GABAARs directly. […] Of the 14 compounds that bound to TSPO in vitro, 5 compounds potentiated GABAAR in FLIPR assays (Fig. 3c; 2f, green arrowheads).
(§2) In vitro binding assays and Ki data were generated by the National Institute of Mental Health’s Psychoactive Drug Screening Program (PDSP), contract no. HHSN-271-2008-00025-C (NIMH PDSP), for assay details: http://pdsp.med.unc.edu/PDSP%20Protocols%20II%202013-03-28.pdf. Normalized Ki (npKi) values were generated as follows: npKi = 4 + (−log10 (Ki))[64].

[6] = biological target: T1, alpha 2b receptor (Homo sapiens, UniProt P18089); assay: In vitro receptor binding (NIMH PDSP); conditions: in words; binding counted at Ki < 10 μM
T1 sequence (P18089 1-450): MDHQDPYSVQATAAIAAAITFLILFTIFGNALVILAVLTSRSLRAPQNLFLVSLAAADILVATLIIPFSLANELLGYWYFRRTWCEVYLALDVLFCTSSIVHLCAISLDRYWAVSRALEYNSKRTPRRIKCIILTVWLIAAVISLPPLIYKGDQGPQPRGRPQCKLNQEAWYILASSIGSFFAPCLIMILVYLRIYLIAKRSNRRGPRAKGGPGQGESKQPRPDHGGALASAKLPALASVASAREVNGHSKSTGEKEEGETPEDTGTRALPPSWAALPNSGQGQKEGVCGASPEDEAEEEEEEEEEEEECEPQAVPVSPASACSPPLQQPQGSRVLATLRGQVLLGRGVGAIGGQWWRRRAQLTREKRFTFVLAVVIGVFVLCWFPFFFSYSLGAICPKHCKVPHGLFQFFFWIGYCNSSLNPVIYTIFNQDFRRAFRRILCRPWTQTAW
Text: as §1, §2

[7] = biological target: benzodiazepine receptor (BZP); assay: In vitro receptor binding (NIMH PDSP); conditions: in words; binding counted at Ki < 10 μM
Text: as §1, §2

[8] = biological target: dopamine transporter (Homo sapiens, UniProt Q01959); assay: In vitro receptor binding (NIMH PDSP)
Sequence of dopamine transporter (Q01959 whole entry): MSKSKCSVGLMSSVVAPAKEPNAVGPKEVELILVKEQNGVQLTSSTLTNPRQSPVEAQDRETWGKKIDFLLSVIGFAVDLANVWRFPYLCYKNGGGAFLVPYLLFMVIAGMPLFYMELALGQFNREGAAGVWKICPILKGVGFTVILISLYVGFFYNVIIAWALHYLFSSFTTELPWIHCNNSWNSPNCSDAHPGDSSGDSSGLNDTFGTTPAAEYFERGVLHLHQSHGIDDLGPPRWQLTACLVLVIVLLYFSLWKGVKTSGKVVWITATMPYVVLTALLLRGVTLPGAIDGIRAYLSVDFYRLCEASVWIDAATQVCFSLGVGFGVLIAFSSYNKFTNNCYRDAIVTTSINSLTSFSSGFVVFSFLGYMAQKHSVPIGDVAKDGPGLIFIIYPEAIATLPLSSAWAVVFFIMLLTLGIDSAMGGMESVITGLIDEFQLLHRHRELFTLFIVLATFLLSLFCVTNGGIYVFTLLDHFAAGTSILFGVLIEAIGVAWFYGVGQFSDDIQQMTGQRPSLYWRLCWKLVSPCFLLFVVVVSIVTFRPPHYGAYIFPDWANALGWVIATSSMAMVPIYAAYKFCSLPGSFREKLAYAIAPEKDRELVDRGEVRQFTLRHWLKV
Text: as §1, §2

[9] = system: zebrafish; assay: Viability of anesthetic treated animals; format: in vivo; conditions: zebrafish, in vivo
Protocol: (§3) Behavioral assays for pERK. Animals were treated with DMSO or drug for one hour then exposed to a low-volume acoustic stimulus every 10 seconds for 10 minutes. Optovin-treated animals were stimulated with violet light for one second every 10 seconds for 10 minutes. Videos were recorded to measure response to the stimulus and quantified by motion index (MI). Animals were immediately […]
High speed imaging. Digital video was recorded at 500-1000 frames per second using an Integrated Design Tools NX5-S1 digital camera. Assay duration was 500-1000 ms. Low amplitude tap stimuli was delivered as described above. Videos and still images were assembled using Fiji (imageJ) and […]
RNAscope. Zebrafish (6 dpf) were fixed using 10% normal buffered formaldehyde overnight at 4 °C, dehydrated in 100% methanol and stored at -20 °C until the assay was performed. Fluorescent in situ hybridization was performed using the RNAScope kit (Advanced Cell Diagnostics)4 with the following modifications: target retrieval was performed using 150 mM Tris pH 9.5 for 15 minutes at 70 °C, washes were performed using 0.2x SSCT (0.01% Tween-20, […], 0.3mM TriNa-citrate, pH7), samples were stored overnight after probe hybridization and 2x 5 minute washes in 5x SSC ([…], pH7) at room temperature before amplification and detection steps were performed the following day.
Viability. Animals were scored manually to determine viability after anesthetic treatments. 100 animals were scored per condition at 10 minutes, 1 hour and 5 hours post treatment. Strong heart rate was observed under a dissecting scope (Leica M-80) for our viability score. […]
rdkit function FingerprintMols package written for python. Tanimoto similarity function was used with a […]

[10] = system: zebrafish; assay: Cortisol detection assay; format: in vivo; conditions: 7-day old larvae treated 1 h; in words
Protocol: Cortisol levels were measured in zebrafish. Briefly, 15, 7-day old larvae were treated with the indicated compounds for 1 h. Larvae were anesthetized in ice-cold egg water and then snap-froze in an ethanol/dry ice bath. Larvae were then homogenized in 100 μL of water. Cortisol was extracted from the homogenate with 1 mL of ethyl acetate, the resulting supernatant was collected and the solvent allowed to evaporate. Cortisol was dissolved in 0.2% bovine serum albumin (A7030, Sigma) and frozen at −20 °C. For cortisol ELISA experiments, 96-well plates (VWR International) were treated with cortisol antibody (P01-92-94M-P, EastCoast Bio; […] in PBS) for 16 h at 4 °C, washed, and blocked with 0.1% BSA in PBS. Cortisol samples and cortisol-HRP (P91-92-91H, EastCoast Bio) were incubated at room temperature for 2 h and washed extensively with PBS containing 0.05% Tween-20 (Invitrogen). Detection of HRP was performed using tetramethylbenzidine (TMB: 22166-1, Biomol) and Tetrabutylammonium borohydride (TBABH: 230170-10 G, Sigma). Reaction was stopped using 1 M H2SO4. Absorbance was read at 450 nm in an ELISA plate reader (SpectraMax MS, Molecular Devices).

[11] = system: zebrafish; format: in vivo
Protocol: as §3, with “(MI).” for “(MI). Animals were immediately”

Structure (SMILES): CCc1cc2c(=O)c(-c3ccccc3Cl)c(C)oc2cc1OC [compound 7013338]
- phenocopy ([1]; […], positive/negative): positive
- rescue of behavioral phenotypes by pretreatment with the GABAAR antagonist PTX [1]: partially rescued
- FLIPR Results [2]: Positive
- GABAAR PAM activity in FLIPR, in words [2]: potentiated GABAARs significantly greater than positive controls; also recorded: significantly greater than the positive controls; also recorded: the most effective hit compound in the FLIPR assays; also recorded: activated human GABAARs more than any other hit compound
- violet light response and acoustic startle in adult animals [3]: reducing the violet light response, while increasing acoustic startle
- optovin response (optovin-induced motor activity) [4]: did not suppress the optovin response

Structure (SMILES): O=C(NCc1cccc(Oc2ccccc2)c1)C(=O)c1c[nH]c2ccccc12 [compound 7145248]
- Ave Norm FLIPR Score [2]: -24.79
- binding [5]: bound
- binding [6]: bound
- binding [7]: bound
- binding [8]: bound

Structure (SMILES): CCOC(=O)c1cncn1[C@H](C)c1ccccc1 [etomidate]
- eASRs at higher concentration ([1]; 50 µM compared to 6 µM): suppressed eASRs
- Average phenoscore of etomidate-treated positive controls ([1]; etomidate 6.5 uM, versus DMSO 0.2): 0.71
- percent animals responding (startle frequency) ([1]; etomidate 6.25 µΜ, dampened solenoid stimulus, 100 animals, controls 2%): 85%
- rescue of behavioral phenotypes by pretreatment with the GABAAR antagonist PTX [1]: rescued
- Ave Norm FLIPR Score [2]: 50.67
- FLIPR Results [2]: Positive
- GABAAR PAM activity in FLIPR, in words [2]: increased fluorescence in the presence of GABA
- toxicity at the concentrations that caused eASRs [9]: Neither etomidate or propofol was toxic
- cortisol levels [10]: lowered cortisol levels
- pERK labeling (neuronal activity) ([11]; in words): broadly reduced
- pERK labeling in the caudal hindbrain at higher concentration ([11]; zebrafish, in vivo): decreased pERK labeling in the caudal hindbrain
- violet light response and acoustic startle in adult animals [3]: reducing the violet light response, while increasing acoustic startle
- optovin response (optovin-induced motor activity) [4]: suppressed the optovin response

Source: publication PMC6733874, “Zebrafish behavioural profiling identifies GABA and serotonin receptor ligands related to sedation and paradoxical excitation” (Nature Communications, 2019)
